Results as given in patent US20140066385A1, “METHOD FOR TREATING CANCER BY COMBINED USE OF DRUGS” (Astellas Pharma Inc., priority 2011, published 2014).

How the values were obtained:
Type in all cases: in vivo, nude mice
[1] = test system: human non-small cell lung cancer (Calu-6); assay: Example 3: dose dependency of FK330 in enhancing paclitaxel in Calu-6 tumor-bearing mice; settings: Day 59; for tumor volume at the end of the study: mean±SEM
Description: Preparation of the test substances and conditioning of the cells were carried out in the same manner as in Example 2.
Five-week old male nude mice (CAnN Cg-Foxn1nu/CrlCrlj(nu/nu)) were purchased from Charles River Laboratories Japan, Inc. (Japan, Kanagawa). The animals were raised under specific pathogen-free (SPF) conditions throughout the test period by feeding standard feedstuff and drinking water. The cultured cells were subcutaneously inoculated into the dorsal region of the nude mice at a concentration of 3×10^6 cells/0.1 mL/mouse. Nude mice which had the tumor volumes (major axis×[minor axis]^2×0.52) ranging from 123.3 mm^3 to 274.4 mm^3 were assigned by using SAS to minimize the fluctuation in the tumor volume between the groups and within the group.
The first day of administration was designated as Day 0, and observation was made until Day 59. The respective groups (n=5) were treated as follows. FK330 was orally gavaged in an amount of 5 mL/kg, and paclitaxel was administered intravenously through the tail vein in an amount of 10 mL/kg. Paclitaxel was continuously administered from Day 0 to Day 5, and then was withdrawn for 21 days. This was defined as one cycle, and administration was carried out up to two cycles.
Paclitaxel single administration group: Paclitaxel 10 mg/kg/day (continuously administered for six days from Day 0 in Cycle 1, and continuously administered for 6 days from Day 27 in Cycle 2)
FK330 30 mg/kg bid (60 mg/kg/day)+paclitaxel 10 mg/kg/day (continuously administered for 6 days from Day 0 in Cycle 1, and continuously administered for 6 days from Day 27 in Cycle 2)
FK330 60 mg/kg bid (120 mg/kg/day)+paclitaxel 10 mg/kg/day (continuously administered for 6 days from Day 0 in Cycle 1, and continuously administered for 6 days from Day 27 in Cycle 2)
FK330 100 mg/kg bid (200 mg/kg/day)+paclitaxel 10 mg/kg/day (continuously administered for 6 days from Day 0 in Cycle 1, and continuously administered for 6 days from Day 27 in Cycle 2)
FK330 was orally gavaged (5 mL/kg) twice a day at an interval of 6 to 8 hours. Paclitaxel was administered by intravenous bolus injection (10 mL/kg) through the tail vein 2 to 4 hours after the administration of FK330.
(§1) Every 2 to 4 days, the body weight and the tumor diameters, determined by using a digital caliper, were measured. The tumor volume was calculated from the calculation formula for ellipsoid volume of (major axis×[minor axis]^2×0.52).

[2] = test system: human gastric cancer (AZ-521); assay: Example 5: FK330 with paclitaxel in AZ-521 tumor-bearing mice; settings: for tumor volume on the last day of experiment: AZ-521, Day 46, mean±SEM
Description: (§2) Preparation of the test substances was carried out in the same manner as in Example 2.
(§3) Human gastric cancer-derived NCI-N87 (CRL-5822) was obtained from American Type Culture Collection (VA, USA), MKN-28 (JCRB0253) was obtained from Health Science Research Resources Bank (HSRRB), and AZ-521 (RCB2087) was obtained from Riken BRC. NCI-N87 and MKN-28 cells were cultured under the conditions of 37° C. and 5% CO2 by using RPMI1640 medium containing 10% heat-inactivated fetal bovine serum (FBS), and AZ-521 cells were cultured under the conditions of 37° C. and 5% CO2 by using DMEM medium containing 10% heat-inactivated FBS. The cells were harvested with trypsin and were suspended in PBS at 6×10^7 cells/mL, and the suspension was mixed with an equal amount of Matrigel (trade name) Basement Membrane Matrix (manufactured by Becton Dickinson Co., Bedford, Mass., USA).
(§4) Five-week old male nude mice (CAnN Cg-Foxn1nu/CrlCrlj(nu/nu)) were purchased from Charles River Laboratories Japan, Inc. (Japan, Kanagawa). The animals were raised under specific pathogen-free (SPF) conditions throughout the test period by feeding standard feedstuff and drinking water. The cultured cells were subcutaneously inoculated into the dorsal region of the nude mice at a concentration of 3×10^6 cells/0.1 mL/mouse. […]
as §1
(§5) The results are expressed as the mean value (Mean)±standard error (SEM). Using the actual measured values of the tumor volume at each measurement time point, an unpaired statistical test (Student's t-test) of the difference between two groups was carried out between a single administration group and a combined use group. […]

[3] = test system: human gastric cancer (MKN-28); assay: Example 5: FK330 with paclitaxel in MKN-28 tumor-bearing mice; settings: for tumor volume on the last day of experiment: MKN-28, Day 84, mean±SEM
Description: as §2, §3, §4, §1, §5

[4] = test system: human gastric cancer (NCI-N87); assay: Example 5: FK330 with paclitaxel in NCI-N87 tumor-bearing mice; settings: for tumor volume on the last day of experiment: NCI-N87, Day 56, mean±SEM
Description: as §2, §3, §4, §1, §5

[5] = combined use group paclitaxel + FK330 100 mg/kg bid
[6] = paclitaxel-only group 10 mg/kg/day i.v., two cycles

O=C(/C=C/c1ccc(Cl)cc1)N[C@@H](Cc1ccccn1)C(=O)NCC(=O)N1CCC(Oc2cc(C(F)(F)F)ncn2)CC1 [FK330, N^2-[(2E)-3-(4-chlorophenyl)-2-propenoyl]-N-[2-oxo-2-(4-{[6-(trifluoromethyl)pyrimidin-4-yl]oxy}piperidin-1-yl)ethyl]-3-pyridin-2-yl-L-alaninamide]
tumor volume reduction ratio compared with the paclitaxel-only group ([1]; FK330 30 mg/kg bid + paclitaxel 10 mg/kg/day): 41.7% | tumor volume at the end of the study ([1]; FK330 30 mg/kg bid combined use group with paclitaxel 10 mg/kg/day): 955.9±231.0 mm^3 | tumor volume reduction ratio compared with the paclitaxel-only group ([1]; FK330 60 mg/kg bid + paclitaxel 10 mg/kg/day): 56.9% | tumor volume at the end of the study ([1]; FK330 60 mg/kg bid combined use group with paclitaxel 10 mg/kg/day): 706.2±256.1 mm^3 | tumor volume reduction ratio compared with the paclitaxel-only group ([1]; FK330 100 mg/kg bid + paclitaxel 10 mg/kg/day): 81.8% | tumor volume at the end of the study ([1]; FK330 100 mg/kg bid combined use group with paclitaxel 10 mg/kg/day): 297.9±101.4 mm^3 | tumor volume on the last day of experiment ([2]; combined use group paclitaxel 10 mg/kg/day + FK330 100 mg/kg bid): 795.0±223.3 mm^3 | tumor volume decrease compared with the paclitaxel-only group ([2]; AZ-521, last day, FK330 100 mg/kg bid + paclitaxel, P<0.01): 75.8% | tumor volume on the last day of experiment [3, 5]: 164.8±18.5 mm^3 | tumor volume decrease compared with the paclitaxel-only group ([3]; MKN-28, last day, FK330 100 mg/kg bid + paclitaxel, P=0.08): 63.7% | tumor volume on the last day of experiment [4, 5]: 223.9±85.1 mm^3 | tumor volume decrease compared with the paclitaxel-only group ([4]; NCI-N87, last day, FK330 100 mg/kg bid + paclitaxel, P<0.03): 54.5%

CC(=O)O[C@H]1C(=O)[C@@]2(C)[C@H]([C@H](OC(=O)c3ccccc3)[C@]3(O)C[C@H](OC(=O)[C@H](O)[C@@H](NC(=O)c4ccccc4)c4ccccc4)C(C)=C1C3(C)C)[C@]1(OC(C)=O)CO[C@@H]1C[C@@H]2O [paclitaxel, reference compound]
tumor volume at the end of the study ([1]; paclitaxel-only group, 10 mg/kg/day i.v., two cycles): 1640.1±902.8 mm^3 | tumor volume on the last day of experiment [2, 6]: 3285.4±359.4 mm^3 | tumor volume on the last day of experiment ([3]; paclitaxel-only group 10 mg/kg/day i.v., three cycles): 454.1±147.5 mm^3 | tumor volume on the last day of experiment [4, 6]: 492.0±48.5 mm^3
